The test system of assay [1] is pollen development in Arabidopsis thaliana. The note with it: literature, cited from earlier work.
The subject of assay [2] is soil-grown Arabidopsis thaliana Col-0 ecotype plants. Description: Herbicidal spray experiments with 1 mM aspterric acid in solvent formulations. In kind it is in vivo. How it is done: Aspterric acid was dissolved in the following solvent formulations at a final concentration of 1 mM: (1) 0.5% silwet L-77 and 1% DMSO (floral dip formulation), (2) 2% EtOH, 1% corn oil, and 0.1% tween 80, and (3) 2% EtOH and 0.05% Finale (Finale formulation, contains a final concentration of […]).
For spray treatments with aspterric acid in the various formulations described above, Arabidopsis thaliana Col-0 ecotype plants were grown in soil under long day conditions (16 hours of light followed by 8 hours of dark per day) at 23° C. using cool-white fluorescence bulbs as the light source. Ten-day old seedlings were sprayed with 1 mM aspterric acid dissolved in formulation (1), (2), or (3) as described above. Spray application with the various respective formulations was repeated every 2 days.

The test system of assay [3] is astD transgene-expressing A. thaliana. Description: AA resistance of astD transgenic plants (media and spray). In kind it is in vivo, Arabidopsis thaliana. How it is done:
(§1) Growth inhibition assay of plants on plates or in the tubes. MS (2.16 g/L Murashige and Skoog basal medium, 8 g/L sucrose, 8 g/L agar) media was used to test the growth inhibition of AA on A. thaliana, Solanum lycopersicum, and Zea mays. A. thaliana, S. lycopersicum, G. max and Z. mays were grown under long day condition (16/8 h light/dark) using cool-white fluorescence bulbs as the light resource at 23° C. AA was dissolved in ethanol and added to the media before inoculating strains or growing plants. The media of control treatment contains the same amount of ethanol, but without AA.
Plant growth inhibition assay by spraying. AA was firstly dissolved in ethanol and then added to solvent (0.06 g/L Finale® Bayer Inc.+20 g/L EtOH). The control plants were treated with solvent containing ethanol only. A. thaliana that are resistant to glufosinate (containing the bar gene) were grown under long day conditions (16/8 h light/dark) using cool-white fluorescence bulbs as the light resource at 23° C. Spraying treatments began when the seeds germinated, and was repeated once every two days with approximately 0.4 mL AA solution per time per pot.
The coding sequence of AstD was codon optimized for A. thaliana. A chloroplast localization signal (CLS) of 35-amino acid residues derived from the N-terminal of A. thaliana DHAD (SEQ ID NO: 19) was fused to N-terminus of the codon optimized AstD. […]

In assay [4] the test system is S. cerevisiae ΔILV3 expressing fDHAD. Kind of assay: Growth inhibition of S. cerevisiae ΔILV3 in ILV dropout media. The assay is classed as cell-based, Saccharomyces cerevisiae. How it is done: Growth inhibition assay of S. cerevisiae on plates or in the tubes. S. cerevisiae was grown in isoleucine, leucine and valine (ILV) dropout media (20 g/L glucose, 0.67 g/L Difco™ Yeast Nitrogen Base w/o amino acids, 18 mg/L adenine, arginine 76 mg/L, asparagine 76 mg/L, aspartic acid 76 mg/L, glutamic acid 76 mg/L, histidine 76 mg/L, lysine 76 mg/L, methionine 76 mg/L, phenylalanine 76 mg/L, serine 76 mg/L, threonine 76 mg/L, tryptophan 76 mg/L, tyrosine 76 mg/L) to test growth inhibition of AA on S. cerevisiae. S. cerevisiae was incubated at 28° C. until OD600 of the control strain without AA treatment reached about 0.8. The ratio of yeast OD600 in media with AA treatment to yeast OD600 in media without AA was calculated as the percentage of growth inhibition. The inhibition curve was plotted as percentage of inhibition versus AA concentrations. […] The growth curves of TY05, TY06 and TY07 were also plotted (FIG. 29A-29D). The OD600 was recorded for every 20 minutes over a total of 50 h. The inhibition percentage can be calculated by following equation: […]

Assay [5] concerns tomato seedlings (Solanum lycopersicum). Description: Agar-based plant growth inhibition assay on MS media. In kind it is in vivo. To be noted: 50 μM aspterric acid. How it is done:
Sterile tomato seedlings were plated on MS media containing 50 μM aspterric acid and 1% DMSO (to increase the solubility of aspterric acid) or on MS media containing 50 μM glyphosate on day 0. MS media containing only 1% DMSO was used as a control. Growth was assessed on day 3 and day 7.
as §1

Like-named read-outs stand apart in the source and are kept apart here.

As for `CC(C)=C1CC[C@]23CO[C@H](C2)[C@@](O)(C(=O)O)CC[C@@H]13` [aspterric acid], the “inhibition of pollen development in A. thaliana (previously reported)” value in assay [1] is recorded as “inhibit pollen development”; in assay [1] (listed as AA), “inhibitory activity towards pollen development”. Also, the “growth after spray, formulation (1)” value in assay [2] (1 mM in 0.5% silwet L-77 and 1% DMSO, every 2 days, 18 days after first spray) was “showed growth inhibition”. In addition, the “growth after spray, formulation (3)” value in assay [2] (1 mM in 2% EtOH and 0.05% Finale, glufosinate-resistant plants, 18 days after first spray) is “significant growth inhibition”. The “growth after spray, formulation (2)” value in assay [2] (1 mM in 2% EtOH, 1% corn oil, 0.1% tween 80, every 2 days, 17 days after first spray) is “showed growth inhibition”. The “growth of astD transgenic plants on media” value in assay [3] (100 μM AA) is reported as “relatively unaffected”. In addition, the “growth of T2 astD transgenic plants after spray” value in assay [3] (250 μM AA + glufosinate ammonium) is reported as “no observable growth defects”. For the same compound, in assay [4] (Saccharomyces cerevisiae, ILV dropout media, read-out: IC50 of growth inhibition, yeast expressing fDHAD), the IC50 (in general, the concentration at which inhibition is half-maximal) is about 2000 nM. In addition, the “sensitivity to AA of yeast expressing fDHAD compared to yeast expressing AstD” value in assay [4] (ratio of IC50) is listed as “approximately 100 times”. The “growth of tomato (Solanum lycopersicum) on MS media” value in assay [5] was “significant vegetative growth inhibition”; in assay [5] (listed as AA), “effective inhibitor of root development and plant growth”.
